The results in this text go back to paper PMC6271756, “Synthesis of Caffeic Acid Amides Bearing 2,3,4,5-Tetra-hydrobenzo[b][1,4]dioxocine Moieties and Their Biological Evaluation as Antitumor Agents” (Molecules, 2014).

Series [1] deals with T1, EGFR (Homo sapiens, UniProt P00533).
T1 construct: EGFR cytoplasmic domain (EGFR-CD, amino acids 645–1186); (His)6 (N); made in house; host or cells: Sf-9 insect cells (baculovirus)
The series can be described thus: EGFR kinase autophosphorylation assay (DELFIA/Time Resolved Fluorometry). It counts as biochemical. To be noted: enzyme incubated with compounds for 70 min. As for the experimental part: A sequence that encodes (His)6 was located at the 5' upstream to the EGFR sequences. Sf-9 cells were infected for 3 days for protein expression. Sf-9 cell pellets were solubilized at 0 °C in a buffer at pH 7.4 containing 50 mM HEPES, 10 mM NaCl, 1% Triton, 10 μM ammonium molybdate, 100 μM sodium vanadate, 10 μg/mL aprotinin, 10 μg/mL leupeptin, 10 μg/mL pepstatin, and 16 μg/mL benzamidine HCl for 20 min followed by 20 min centrifugation. Crude extract supernatant was passed through an equilibrated Ni-NTA superflow packed column and washed with 10 mM and then 100 mM imidazole to remove nonspecifically bound material. Histidine tagged proteins were eluted with 250 and 500 mM imidazole and dialyzed against 50 mM NaCl, 20 mM HEPES, 10% glycerol, and 1 μg/mL each of aprotinin, leupeptin, and pepstatin for 2 h. The entire purification procedure was performed at 4 °C or on ice.
EGFR kinase assays was set up to assess the level of autophosphorylation based on DELFIA/Time Resolved Fluorometry. […] In each well, 10 μL compound was incubated with 10 μL (5 ng for EGFR) recombinant enzyme (1:80 dilution in 100 mM HEPES) for 10 min at room temperature. Then, 10 μL of 5× buffer (containing 20 mM HEPES, 2 mM MnCl2, 100 μM Na3VO4, and 1 mM DTT) and 20 μL of 0.1 mM ATP-50 mM MgCl2 were added for 1 h. Positive and negative controls were included in each plate by incubation of enzyme with or without ATP-MgCl2.
At the end of incubation, liquid was aspirated, and plates were washed three times with wash buffer. A 75 μL (400 ng) sample of europium labeled anti-phosphotyrosine antibody was added to each well for another 1 h of incubation. After washing, enhancement solution was added and the signal was detected by Victor (Wallac Inc., Männedorf, Switzerland) with excitation at 340 nm and emission at 615 nm. The percentage of autophosphorylation inhibition by the compounds was calculated using the following equation: 100% − [[…]] (1)
The IC50 was obtained from curves of percentage inhibition with eight concentrations of compound.

Series [2] has as its system HepG2. The series can be described thus: Cell proliferation assay (CCK8), HepG2. In kind it is cell-based. To be noted: Homo sapiens, HepG2; cells incubated with compounds for 24 h; CCK8. As for the experimental part:
(§1) CCK8 is much more convenient and helpful than MTT for analyzing cell proliferation, because it can be reduced to soluble formazan by dehydrogenase in mitochondria and has little toxicity to cells. Cell proliferation was determined using CCK8 dye (Beyotime Inst. Biotech., Nanjing, China) according to the manufacturer's instructions. Briefly, 1–5 × 10^3 cells per well were seeded on a 96-well plate, and grown at 37 °C for 12 h. Subsequently, cells were treated with all synthesized compounds at increasing concentrations in the presence of 10% FBS for 24 h. After addition of 10 μL CCK8 dyeto each well, cells were incubated at 37 °C for 2 h and plates were read on a Victor-V multilabel counter (Perkin-Elmer, Männedorf, Switzerland) using the default […]. Percent inhibition or IC50 values of compounds were calculated by comparison with DMSO-treated control wells.

Series [3] concerns A431. Description: Cell proliferation assay (CCK8), A431. It counts as cell-based. The conditions noted are these: Homo sapiens, A-431, cells incubated with compounds for 24 h. Here is the method: as §1
The subject of series [4] is Hela. Description: Cell proliferation assay (CCK8), Hela. In kind it is cell-based. The conditions noted are these: Homo sapiens, cells incubated with compounds for 24 h. Here is the method:
as §1

T1 sequence (P00533 669-1210): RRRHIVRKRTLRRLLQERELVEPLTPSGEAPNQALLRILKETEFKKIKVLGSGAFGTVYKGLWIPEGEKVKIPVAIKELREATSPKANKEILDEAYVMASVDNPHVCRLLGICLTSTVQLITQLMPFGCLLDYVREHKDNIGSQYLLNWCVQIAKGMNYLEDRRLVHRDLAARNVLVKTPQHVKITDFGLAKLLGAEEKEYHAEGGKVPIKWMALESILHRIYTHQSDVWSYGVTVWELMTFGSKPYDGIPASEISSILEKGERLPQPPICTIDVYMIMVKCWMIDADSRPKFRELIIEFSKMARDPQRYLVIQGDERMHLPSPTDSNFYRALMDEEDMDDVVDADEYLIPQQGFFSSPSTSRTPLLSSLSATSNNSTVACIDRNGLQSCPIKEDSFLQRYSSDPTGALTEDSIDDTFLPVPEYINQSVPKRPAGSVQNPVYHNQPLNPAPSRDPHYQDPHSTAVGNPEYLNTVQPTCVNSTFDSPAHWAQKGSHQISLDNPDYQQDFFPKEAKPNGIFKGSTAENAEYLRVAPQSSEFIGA

Turning to `Cc1cccc(NC(=O)/C=C/c2ccc3c(c2)OCCCCO3)c1` [Compound D12, (E)-3-(2,3,4,5-tetrahydrobenzo[b][1,4]dioxocin-8-yl)-N-m-tolylacrylamide], the melting point (as a rule, the temperature, or range, at which the solid turns liquid) lay in the range of 112 to 113 °C. The IC50 – broadly, the point on the concentration scale where inhibition reaches its midpoint – in series [1] was determined as 12 µM. Further, the IC50 in series [2] stood at 6.28 µM. Moreover, in series [3], the IC50 stood at 14.2 µM. Besides, the IC50 in series [4] came to 10.8 µM.

Regarding `O=C(O)/C=C/c1ccc2c(c1)OCCCCO2` [C, (E)-3-(2,3,4,5-tetrahydrobenzo[b][1,4]dioxocin-8-yl)acrylic acid], the figures for the IC50 in series [2], in series [3] and in series [4] were 56 µM, 41 µM and 105 µM, respectively.

Molecule `COc1ccc(NC(=O)/C=C/c2ccc3c(c2)OCCCCO3)cc1OC` [Compound D3, (E)-N-(3,4-dimethoxyphenyl)-3-(2,3,4,5-tetrahydrobenzo[b][1,4]dioxocin-8-yl)acrylamide] showed a melting point of 171 to 172 °C. The IC50 in series [2] was found to be 10.2 µM. Besides, the IC50 in series [3] is 8.96 µM. Further, in series [4], the IC50 is 19.6 µM.

For the molecule `O=C(/C=C/c1ccc2c(c1)OCCCCO2)Nc1ccccc1[N+](=O)[O-]` [Compound D2, (E)-N-(2-nitrophenyl)-3-(2,3,4,5-tetrahydrobenzo[b][1,4]dioxocin-8-yl)acrylamide], the melting point was 119 to 120 °C. Also, the IC50 in series [2] amounted to 9.4 µM. For the same molecule, the IC50 in series [3] turned out to be 24.7 µM. In series [4], the IC50 came out at 28.2 µM.

Consider `COc1cccc(NC(=O)/C=C/c2ccc3c(c2)OCCCCO3)c1` [Compound D7, (E)-N-(3-methoxyphenyl)-3-(2,3,4,5-tetrahydrobenzo[b][1,4]dioxocin-8-yl)acrylamide], for which the melting point was 104 to 105 °C. Moreover, the IC50 in series [1] stood at 6.78 µM. Also, the 50% inhibitory concentration (IC50) in series [2] is 3.16 µM. The IC50 in series [3] was 12.6 µM. In series [4], the IC50 was determined as 8.71 µM.

For `O=C(/C=C/c1ccc2c(c1)OCCCCO2)Nc1ccc(Br)cc1F` [Compound D14, (E)-N-(4-bromo-2-fluorophenyl)-3-(2,3,4,5-tetrahydrobenzo[b][1,4]dioxocin-8-yl)acrylamide], the melting point lay within 110 to 111 °C. In series [2], the IC50 was determined as 9.03 µM. Besides, in series [3], the 50% inhibitory concentration (IC50) stood at 22.6 µM. For the same molecule, in series [4], the IC50 was 30.8 µM.

With `COc1ccc(NC(=O)/C=C/c2ccc3c(c2)OCCCCO3)cc1` [Compound D8, (E)-N-(4-methoxyphenyl)-3-(2,3,4,5-tetrahydrobenzo[b][1,4]dioxocin-8-yl)acrylamide], the melting point lay in the range of 112 to 113 °C. Moreover, in series [1], the IC50 stood at 0.85 µM. Besides, the IC50 in series [2] is 0.95 µM. The 50% inhibitory concentration (IC50) in series [3] is 7.42 µM. For the same molecule, the IC50 in series [4] worked out at 7.04 µM.

For `O=C(/C=C/c1ccc2c(c1)OCCCCO2)Nc1ccccc1Cl` [Compound D11, (E)-N-(2-chlorophenyl)-3-(2,3,4,5-tetrahydrobenzo[b][1,4]dioxocin-8-yl)acrylamide], the melting point fell in the range of 127 to 128 °C. Further, the half-maximal inhibitory concentration (IC50) in series [1] came to 8.97 µM. The IC50 in series [2] amounted to 4.94 µM. Also, the IC50 in series [3] worked out at 18.9 µM. In series [4], the IC50 stood at 16.7 µM.

Take `O=C(/C=C/c1ccc2c(c1)OCCCCO2)Nc1cccc(F)c1` [Compound D17, (E)-N-(3-fluorophenyl)-3-(2,3,4,5-tetrahydrobenzo[b][1,4]dioxocin-8-yl)acrylamide]: the melting point is 116 to 117 °C. Moreover, the IC50 in series [2] is 7.9 µM. Moreover, the IC50 in series [3] is 21.6 µM. Moreover, the 50% inhibitory concentration (IC50) in series [4] was found to be 19.5 µM.

Regarding `O=C(/C=C/c1ccc2c(c1)OCCCCO2)Nc1ccc(Br)cc1` [Compound D16, (E)-N-(4-bromophenyl)-3-(2,3,4,5-tetrahydrobenzo[b][1,4]dioxocin-8-yl)acrylamide], the melting point is 107 to 108 °C. Also, in series [1], the IC50 turned out to be 3.52 µM. The half-inhibitory concentration (IC50) in series [2] was 2.38 µM. In addition, the IC50 in series [3] worked out at 7.96 µM. For the same molecule, in series [4], the IC50 came to 9.04 µM.

`COc1cc(NC(=O)/C=C/c2ccc3c(c2)OCCCCO3)cc(OC)c1OC` [Compound D6, (E)-3-(2,3,4,5-tetrahydrobenzo[b][1,4]dioxocin-8-yl)-N-(3,4,5-trimethoxyphenyl)acrylamide] showed a melting point of 145 to 146 °C. Moreover, the IC50 in series [2] worked out at 13.2 µM. In series [3], the IC50 was 11.7 µM. Further, the IC50 in series [4] amounted to 25.7 µM.

For the molecule `Cc1ccc(Cl)cc1NC(=O)/C=C/c1ccc2c(c1)OCCCCO2` [Compound D13, (E)-N-(5-chloro-2-methylphenyl)-3-(2,3,4,5-tetrahydrobenzo[b][1,4]dioxocin-8-yl)acrylamide], the melting point is 107 to 108 °C. Besides, the 50% inhibitory concentration (IC50) in series [2] stood at 15.2 µM. Besides, in series [3], the IC50 is 14.1 µM. Besides, the IC50 in series [4] worked out at 24.3 µM.

As for `COc1cc(NC(=O)/C=C/c2ccc3c(c2)OCCCCO3)cc(OC)c1` [Compound D4, (E)-N-(3,5-dimethoxyphenyl)-3-(2,3,4,5–tetrahydrobenzo[b][1,4]dioxocin-8-yl)acrylamide], the melting point was 115 to 116 °C. Also, in series [2], the 50% inhibitory concentration (IC50) worked out at 11.1 µM. Also, in series [3], the IC50 is 10 µM. The IC50 in series [4] was found to be 23.7 µM.

Regarding `COc1ccc(OC)c(NC(=O)/C=C/c2ccc3c(c2)OCCCCO3)c1` [Compound D5, (E)-N-(2,5-dimethoxyphenyl)-3-(2,3,4,5-tetrahydrobenzo[b][1,4]dioxocin-8-yl)acrylamide], the melting point fell in the range of 110 to 111 °C. The IC50 in series [2] worked out at 10.5 µM. For the same molecule, in series [3], the IC50 was found to be 9.31 µM. Further, the IC50 in series [4] worked out at 21.4 µM.

With `O=C(O)/C=C/c1ccc(O)c(O)c1` [Caffeic acid], the IC50 in series [2] was 225 µM; in series [3], 93.5 µM; in series [4], 544 µM.

In turn, `O=C(/C=C/c1ccc2c(c1)OCCCCO2)NCc1ccccc1F` [Compound D15, (E)-N-(2-fluorobenzyl)-3-(2,3,4,5-tetrahydrobenzo[b][1,4]dioxocin-8-yl)acrylamide] returned a melting point of 86 to 87 °C. Also, the IC50 in series [1] was 2.18 µM. In addition, the IC50 in series [2] was determined as 1.48 µM. In series [3], the IC50 turned out to be 17.8 µM. The IC50 in series [4] worked out at 5.15 µM.

For `O=C(/C=C/c1ccc2c(c1)OCCCCO2)Nc1cccc(Cl)c1` [Compound D10, (E)-N-(3-chlorophenyl)-3-(2,3,4,5-tetrahydrobenzo[b][1,4]dioxocin-8-yl)acrylamide], the melting point lay in the range of 109 to 110 °C. The IC50 in series [1] is 12.4 µM. In addition, the half-inhibitory concentration (IC50) in series [2] was 6.87 µM. Further, the IC50 in series [3] was 20 µM. In series [4], the IC50 turned out to be 18.5 µM.

For the molecule `C#Cc1cccc(Nc2ncnc3cc(OCCOC)c(OCCOC)cc23)c1` [Erlotinib, reference compound], the values for the IC50 in series [2] and in series [3] were 0.08 µM and 0.04 µM, respectively.

On to `O=C(/C=C/c1ccc2c(c1)OCCCCO2)Nc1ccc([N+](=O)[O-])cc1` [Compound D1, (E)-N-(4-nitrophenyl)-3-(2,3,4,5-tetrahydrobenzo[b][1,4]dioxocin-8-yl)acrylamide], for which the melting point lay in the range of 125 to 126 °C. In addition, the 50% inhibitory concentration (IC50) in series [1] was 7.25 µM. In addition, in series [2], the IC50 amounted to 3.47 µM. The IC50 in series [3] was found to be 16.6 µM. The IC50 in series [4] worked out at 13.6 µM.
